Drawing on ChEMBL document CHEMBL5465560, “Selectivity Literature for EUbOPEN Chemogenomic Library” (2024), this text covers % of control for one compound.

Common to all, as to assay type: cell-based
What all share (conditions): at 1 µM

The target in test [1] is T1, Serine/threonine-protein kinase D3 (Homo sapiens) (UniProt O94806).
T1 sequence (whole entry): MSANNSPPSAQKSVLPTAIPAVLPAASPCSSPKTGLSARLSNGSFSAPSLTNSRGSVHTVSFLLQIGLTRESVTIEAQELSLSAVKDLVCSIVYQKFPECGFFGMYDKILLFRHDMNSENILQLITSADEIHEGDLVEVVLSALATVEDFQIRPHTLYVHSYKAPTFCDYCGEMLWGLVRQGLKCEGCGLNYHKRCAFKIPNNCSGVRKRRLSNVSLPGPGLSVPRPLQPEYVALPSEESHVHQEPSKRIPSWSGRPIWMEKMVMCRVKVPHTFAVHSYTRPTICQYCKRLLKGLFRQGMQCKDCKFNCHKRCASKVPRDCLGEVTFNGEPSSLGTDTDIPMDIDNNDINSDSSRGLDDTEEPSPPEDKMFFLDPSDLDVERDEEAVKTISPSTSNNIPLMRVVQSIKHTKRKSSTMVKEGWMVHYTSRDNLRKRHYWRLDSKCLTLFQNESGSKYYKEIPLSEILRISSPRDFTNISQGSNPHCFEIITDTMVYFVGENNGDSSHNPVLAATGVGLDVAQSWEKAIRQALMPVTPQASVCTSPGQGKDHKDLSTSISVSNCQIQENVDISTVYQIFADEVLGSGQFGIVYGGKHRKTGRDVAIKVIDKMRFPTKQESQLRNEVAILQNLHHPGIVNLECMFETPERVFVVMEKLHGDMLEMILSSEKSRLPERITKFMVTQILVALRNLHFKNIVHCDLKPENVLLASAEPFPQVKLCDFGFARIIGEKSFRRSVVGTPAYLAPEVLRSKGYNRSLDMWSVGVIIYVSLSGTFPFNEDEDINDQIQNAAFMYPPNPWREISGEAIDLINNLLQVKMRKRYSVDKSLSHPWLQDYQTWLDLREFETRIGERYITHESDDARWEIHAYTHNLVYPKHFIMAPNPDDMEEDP
In words: Selectivity interaction (Ambit KINOMEscan and KiNATiv profiling in Jurkat cells) EUB0000090b PRKD3.

For test [2], the target named is T2, Serine/threonine-protein kinase tousled-like 1 (Homo sapiens) (UniProt Q9UKI8).
T2 sequence (whole entry): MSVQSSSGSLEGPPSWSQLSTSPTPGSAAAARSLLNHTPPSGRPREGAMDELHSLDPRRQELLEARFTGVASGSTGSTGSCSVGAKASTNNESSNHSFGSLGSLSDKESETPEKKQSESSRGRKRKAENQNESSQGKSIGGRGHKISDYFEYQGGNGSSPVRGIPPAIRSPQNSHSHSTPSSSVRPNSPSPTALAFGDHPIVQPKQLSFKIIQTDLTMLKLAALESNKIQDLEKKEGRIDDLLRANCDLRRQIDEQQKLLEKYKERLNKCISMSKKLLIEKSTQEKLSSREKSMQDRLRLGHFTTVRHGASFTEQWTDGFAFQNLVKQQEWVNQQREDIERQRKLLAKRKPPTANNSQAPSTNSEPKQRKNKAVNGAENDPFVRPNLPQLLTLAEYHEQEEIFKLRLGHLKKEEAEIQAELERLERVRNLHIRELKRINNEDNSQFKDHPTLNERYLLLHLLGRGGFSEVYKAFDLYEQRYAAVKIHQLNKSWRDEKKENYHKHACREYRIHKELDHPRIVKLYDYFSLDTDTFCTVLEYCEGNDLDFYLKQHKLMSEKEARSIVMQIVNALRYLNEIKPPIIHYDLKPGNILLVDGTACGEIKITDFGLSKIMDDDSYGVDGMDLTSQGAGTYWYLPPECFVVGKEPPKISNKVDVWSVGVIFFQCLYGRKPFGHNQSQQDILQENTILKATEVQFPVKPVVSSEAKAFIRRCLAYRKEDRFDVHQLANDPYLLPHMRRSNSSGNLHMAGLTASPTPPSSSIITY
Description: Selectivity interaction (Ambit KINOMEscan and KiNATiv profiling in Jurkat cells) EUB0000090b TLK1.

Test [3] concerns the target T3, cGMP-dependent protein kinase 2 (Homo sapiens) (UniProt Q13237).
T3 sequence (whole entry): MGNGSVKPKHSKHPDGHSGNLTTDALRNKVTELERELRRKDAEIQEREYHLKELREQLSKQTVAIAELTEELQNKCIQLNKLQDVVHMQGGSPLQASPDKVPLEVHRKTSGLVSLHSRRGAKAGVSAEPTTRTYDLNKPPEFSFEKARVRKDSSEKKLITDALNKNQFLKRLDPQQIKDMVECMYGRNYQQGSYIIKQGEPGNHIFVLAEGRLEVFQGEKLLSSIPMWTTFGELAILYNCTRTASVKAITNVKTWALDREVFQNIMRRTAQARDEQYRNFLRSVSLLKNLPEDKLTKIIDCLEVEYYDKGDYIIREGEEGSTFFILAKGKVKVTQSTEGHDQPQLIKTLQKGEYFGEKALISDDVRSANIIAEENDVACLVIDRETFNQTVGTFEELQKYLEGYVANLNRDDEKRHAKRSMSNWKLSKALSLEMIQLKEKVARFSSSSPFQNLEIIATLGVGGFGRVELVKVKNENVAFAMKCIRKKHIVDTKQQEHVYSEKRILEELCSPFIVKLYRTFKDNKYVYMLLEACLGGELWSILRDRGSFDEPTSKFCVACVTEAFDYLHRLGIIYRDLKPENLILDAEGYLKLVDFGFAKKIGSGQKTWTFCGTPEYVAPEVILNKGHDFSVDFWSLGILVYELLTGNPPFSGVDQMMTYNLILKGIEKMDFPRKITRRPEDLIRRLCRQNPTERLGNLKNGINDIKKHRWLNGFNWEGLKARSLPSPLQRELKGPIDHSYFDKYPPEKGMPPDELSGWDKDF
In words: Selectivity interaction (Ambit KINOMEscan and KiNATiv profiling in Jurkat cells) EUB0000090b PRKG2.

Turning to `CN(C)C/C=C/C(=O)Nc1ccc(C(=O)N2CCCC(Nc3ncc(Cl)c(-c4c[nH]c5ccccc45)n3)C2)cc1` (stereo not drawn), the results for the % of control in test [1], in test [2] and in test [3] were 33%, 92% and 95%, respectively.
